“Also recorded” adds a separate entry of the source.
Key:
[1] = test system: EBNA Cp mRNA; assay: EBNA Cp mRNA expression in LCL<EBV1-13> cells; format: cell-based, Epstein-Barr virus; conditions: three days, 10 nM ATO
Protocol: (§1) FIGS. 8A-D. B-cells recently isolated from a patient were infected with EBV, allowed to grow out for several generations (only the EBV-infected cells would be able to grow out), and frozen until use. FIGS. 8A and B. FIGS. 8A and B graph the relative percent of viability of EBV-infected B-cells as just described (LCL<EBV1-13> cells) thawed and grown in one of: media alone (“control”), media and 45 μM ganciclovir (GCV), media and […] arsenic trioxide (ATO), or media and a combination of these concentrations of GCV and ATO. The bars show the relative viability of cells after 2 days of this treatment (“2 D,” FIG. 8A), and at three days (“3 D,” FIG. 8B). FIG. 8C. Epstein-Barr nuclear antigen (“EBNA”) driven by the C promoter (“Cp”) is transcribed only during the latent phase of the virus. FIG. 8C graphs the relative expression of EBNA Cp mRNA of LCL<EBV1-13> cells grown three days (“3 D”) in media alone (“control”), media and 45 μM ganciclovir (GCV), media and 10 nM arsenic trioxide (ATO), or media and a combination of these concentrations of GCV and ATO. […] FIG. 8D. FIG. 8D graphs the relative transcription of the viral immediate early protein Zta mRNA of LCL<EBV1-13> cells grown three days (“3 D”) in media alone (“control”), media and 45 μM ganciclovir (GCV), media and 10 nM arsenic trioxide (ATO), or media and a combination of these concentrations of GCV and ATO. […]

[2] = test system: EBV Zta; assay: Western blot of Zta in MUTU1 cells; format: cell-based, Epstein-Barr virus; conditions: 0, 10 nM, 100 nM ATO, day 3
[3] = test system: LCL<EBV1-13> cells; format: cell-based, human; conditions: 45 μM GCV, 1.0 nM ATO
[4] = test system: CNE1<EBV BX1> tumors; assay: CNE1<EBV BX1> nasopharyngeal carcinoma xenograft, tumor volume; format: in vivo, male nude mice; conditions: 21 days of once daily treatment; GCV 100 μg/g, ATO 100 ng/g; carrier control just under double
[5] = test system: A549<EBVBX1>3A cells; assay: Annexin V/propidium iodide viability, EBV infected A549 cells; conditions: 4 days
[6] = test system: Zta mRNA; assay: Zta mRNA transcription in LCL<EBV1-13> cells; format: cell-based, Epstein-Barr virus; conditions: three days, 10 nM ATO
Protocol: as §1

[7] = test system: EBV Zta protein; format: in vivo, male nude mice; conditions: tumors harvested at 21 days of treatment
[8] = test system: PML NB; format: cell-based, human; conditions: 24 hours
[9] = dosage of ATO approved for relapsed or refractory acute promyelocytic leukemia (Fox et al., 2008); cited from earlier work
[10] = test system: EBV Zta mRNA; format: cell-based, Epstein-Barr virus; conditions: 72 hours, qRT-PCR

Chain of PML NB (P29590 1-418 limits assumed): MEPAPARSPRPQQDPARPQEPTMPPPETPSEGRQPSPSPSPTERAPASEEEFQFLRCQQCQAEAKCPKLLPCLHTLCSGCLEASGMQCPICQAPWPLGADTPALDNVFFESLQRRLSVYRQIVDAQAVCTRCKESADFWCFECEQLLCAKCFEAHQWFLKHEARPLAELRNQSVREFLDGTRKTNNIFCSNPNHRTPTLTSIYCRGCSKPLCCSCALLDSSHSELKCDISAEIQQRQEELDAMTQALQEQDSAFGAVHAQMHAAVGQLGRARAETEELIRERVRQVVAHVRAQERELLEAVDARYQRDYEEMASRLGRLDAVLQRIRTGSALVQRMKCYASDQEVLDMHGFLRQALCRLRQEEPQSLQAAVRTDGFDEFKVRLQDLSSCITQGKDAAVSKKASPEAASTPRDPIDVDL

## arsenic trioxide [ATO]
[1]
  relative expression of EBNA Cp mRNA: drops dramatically
[2]
  Zta expression (Western blot), EBV positive MUTU cells: markedly enhanced reactivation of the EBV lytic cycle; also recorded: show Zta expression
[3]
  viable cells after a third day of treatment compared with two days: barely changed
[4]
  tumor size increase over size at day 7 (pre-treatment): approximately 10%
[5]; control 21%
  percentage of annexin V positive cells: 58%
[5]; EBV positive cells, control 67%
  percentage of viable cells: 35%
[6]
  relative transcription of Zta mRNA: approximately fourfold higher
[7]
  Zta expression in tumor explant tissue: large pockets of reactivation
[8]; 12.5 nM ATO
  PML NB immunofluorescence signal: complete loss; also recorded: below that of baseline untreated uninfected cells
[8]; EBV infected A549 cells, 'as low as'
  ATO concentration resulting in reduction of PML NB size, number and fluorescent intensity: 6.25 nM
[8]; varying doses of ATO
  PML NB immunofluorescence intensity, dose response: diminished by exposure to ATO in a dose dependent manner
[9]
  peak serum arsenic level: ~400 nM
[10]
  ATO concentration inducing an increase in Zta mRNA: ≥ 12.5 nM

From patent publication US20140017336A1, “CO-ADMINISTRATION OF ARSENIC COMPOUNDS AND ANTI-HERPES VIRUS ANTI-VIRALS” (priority 2011, published 2014)
